Assay: xn = mol fraction of the nth substance listed
Settings: 298.15 K, 100 kPa

## CCCC[n+]1ccn(C)c1.F[B-](F)(F)F + CC1COC(=O)O1
x1 = 1
  viscosity: 107.2 mPa·s

## CC1COC(=O)O1 (stereo unspecified) + CCCC[n+]1ccn(C)c1.F[B-](F)(F)F
x2 = 0
  viscosity: 2.7 mPa·s
x2 = 0.05
  viscosity: 3.6 mPa·s
x2 = 0.1
  viscosity: 4.4 mPa·s
x2 = 0.3
  viscosity: 10 mPa·s
x2 = 0.4
  viscosity: 15 mPa·s
x2 = 0.5
  viscosity: 22 mPa·s
x2 = 0.6
  viscosity: 31.4 mPa·s
x2 = 0.7
  viscosity: 44.5 mPa·s
x2 = 0.8
  viscosity: 63.5 mPa·s
x2 = 0.9
  viscosity: 81.3 mPa·s
